Laboratory results reported in patent publication EP0013067A1, “Bicyclic beta-lactam antibacterial agents, their use in pharmaceutical compositions, processes for their preparation and intermediates for use in such processes” (BEECHAM GROUP PLC, priority 1978, dated 1980).

Experiments:
Format in all cases: cell-based
Pseudomonas aeruginosa A [1] = test: MIC, microtitre using Nutrient broth; details: Pseudomonas aeruginosa A; Microtitre using nutrient broth; inoculum 0.001 ml of a 10^-2 dilution for G + ve bacteria or a 10^-4 dilution for G - ve organisms; read-out: MIC Broth
Text: (§1) The ninimum inhibitory concentrations (MIC) cf this compound required to inhibit the growth of various bacteria are tabulated balow: […]

Escherichia coli 0111 [2] = test: MIC, microtitre using Nutrient broth; details: Microtitre using nutrient broth, inoculum 0.001 ml of a 10^-2 dilution for G + ve bacteria or a 10^-4 dilution for G - ve organisms
Text: as §1

[3] = test system: Staphylococcus aureus Russell; test: MIC, microtitre using Nutrient broth; details: Staphylococcus aureus Russell; Microtitre using nutrient broth; inoculum 0.001 ml of a 10^-2 dilution for G + ve bacteria or a 10^-4 dilution for G - ve organisms; read-out: MIC Broth
Text: as §1

Escherichia coli JT 39 [4] = test: MIC, microtitre using Nutrient broth; details: JT39; Escherichia coli JT 39; Microtitre using nutrient broth; inoculum 0.001 ml of a 10^-2 dilution for G + ve bacteria or a 10^-4 dilution for G - ve organisms; read-out: MIC Broth
Text: as §1

Proteus mirabilis C977 [5] = test: MIC, microtitre using Nutrient broth; details: Proteus mirabilis C977; Microtitre using nutrient broth; inoculum 0.001 ml of a 10^-2 dilution for G + ve bacteria or a 10^-4 dilution for G - ve organisms; read-out: MIC Broth
Text: as §1

Klebsiella aerogenes A = test: MIC, microtitre using Nutrient broth; details: Klebsiella aerogenes A; Microtitre using nutrient broth; inoculum 0.001 ml of a 10^-2 dilution for G + ve bacteria or a 10^-4 dilution for G - ve organisms; read-out: MIC Broth
Text: as §1

E. coli ESS = test: MIC, DST agar + 10% horse blood; details: Escherichia coli, inoculum 0.001 ml of a 10^-2 dilution for G + ve bacteria or a 10^-4 dilution for G - ve organisms
Text: as §1

Pseudomonas aeruginosa A [6] = test: MIC, DST agar + 10% horse blood; details: Pseudomonas aeruginosa A; DST agar + 10% horse blood; inoculum 0.001 ml of a 10^-2 dilution for G + ve bacteria or a 10^-4 dilution for G - ve organisms; read-out: MIC Agar
Text: as §1

Proteus rettgeri WM16 = test: MIC, DST agar + 10% horse blood; details: Providencia rettgeri; Proteus rettgeri WM16; DST agar + 10% horse blood; inoculum 0.001 ml of a 10^-2 dilution for G + ve bacteria or a 10^-4 dilution for G - ve organisms; read-out: MIC Agar
Text: as §1

Proteus morganii I580 = test: MIC, DST agar + 10% horse blood; details: Morganella morganii; Proteus morganii I580; DST agar + 10% horse blood; inoculum 0.001 ml of a 10^-2 dilution for G + ve bacteria or a 10^-4 dilution for G - ve organisms; read-out: MIC Agar
Text: as §1

[7] = test system: Salmonella typhimurium CT10; test: MIC, DST agar + 10% horse blood; details: Salmonella enterica; Salmonella typhimurium CT10; DST agar + 10% horse blood; inoculum 0.001 ml of a 10^-2 dilution for G + ve bacteria or a 10^-4 dilution for G - ve organisms; read-out: MIC Agar
Text: as §1

[8] = test system: Streptococcus pneumoniae CN33; test: MIC, DST agar + 10% horse blood; details: Streptococcus pneumoniae CN33; DST agar + 10% horse blood; inoculum 0.001 ml of a 10^-2 dilution for G + ve bacteria or a 10^-4 dilution for G - ve organisms; read-out: MIC Agar
Text: as §1

[9] = test system: Streptococcus pyogenes CN10; test: MIC, DST agar + 10% horse blood; details: Streptococcus pyogenes CN10; DST agar + 10% horse blood; inoculum 0.001 ml of a 10^-2 dilution for G + ve bacteria or a 10^-4 dilution for G - ve organisms; read-out: MIC Agar
Text: as §1

Escherichia coli 0111 [10] = test: MIC, DST agar + 10% horse blood; details: Escherichia coli 0111, inoculum 0.001 ml of a 10^-2 dilution for G + ve bacteria or a 10^-4 dilution for G - ve organisms
Text: as §1

[11] = test system: Staphylococcus aureus 1517; test: MIC, DST agar + 10% horse blood; details: Staphylococcus aureus 1517; DST agar + 10% horse blood; inoculum 0.001 ml of a 10^-2 dilution for G + ve bacteria or a 10^-4 dilution for G - ve organisms; read-out: MIC Agar
Text: as §1

Escherichia coli JT 39 [12] = test: MIC, DST agar + 10% horse blood; details: JT39; Escherichia coli JT 39; DST agar + 10% horse blood; inoculum 0.001 ml of a 10^-2 dilution for G + ve bacteria or a 10^-4 dilution for G - ve organisms; read-out: MIC Agar
Text: as §1

Proteus mirabilis C977 [13] = test: MIC, DST agar + 10% horse blood; details: Proteus mirabilis C977; DST agar + 10% horse blood; inoculum 0.001 ml of a 10^-2 dilution for G + ve bacteria or a 10^-4 dilution for G - ve organisms; read-out: MIC Agar
Text: as §1

Serratia marcescens US20 = test: MIC, DST agar + 10% horse blood; details: Serratia marcescens US20; DST agar + 10% horse blood; inoculum 0.001 ml of a 10^-2 dilution for G + ve bacteria or a 10^-4 dilution for G - ve organisms; read-out: MIC Agar
Text: as §1

[14] = test system: Staphylococcus aureus Oxford; test: MIC, DST agar + 10% horse blood; details: Staphylococcus aureus Oxford; DST agar + 10% horse blood; inoculum 0.001 ml of a 10^-2 dilution for G + ve bacteria or a 10^-4 dilution for G - ve organisms; read-out: MIC Agar
Text: as §1

Shigella sonnei MB 11967 = test: MIC, DST agar + 10% horse blood; details: MB11967, inoculum 0.001 ml of a 10^-2 dilution for G + ve bacteria or a 10^-4 dilution for G - ve organisms
Text: as §1

Streptococcus faecalis I = test: MIC, DST agar + 10% horse blood; details: Enterococcus faecalis; Streptococcus faecalis I; DST agar + 10% horse blood; inoculum 0.001 ml of a 10^-2 dilution for G + ve bacteria or a 10^-4 dilution for G - ve organisms; read-out: MIC Agar
Text: as §1

Bacillus subtilis A = test: MIC, DST agar + 10% horse blood; details: Bacillus subtilis A; DST agar + 10% horse blood; inoculum 0.001 ml of a 10^-2 dilution for G + ve bacteria or a 10^-4 dilution for G - ve organisms; read-out: MIC Agar
Text: as §1

| Compound | MIC (Pseudomonas aeruginosa A [1]) [mg/L] | MIC (Escherichia coli 0111 [2]) [mg/L] | MIC [3] [mg/L] | MIC (Escherichia coli JT 39 [4]) [mg/L] | MIC (Proteus mirabilis C977 [5]) [mg/L] | MIC (Klebsiella aerogenes A) [mg/L] | MIC (E. coli ESS) [mg/L] | MIC (Pseudomonas aeruginosa A [6]) [mg/L] | MIC (Proteus rettgeri WM16) [mg/L] | MIC (Proteus morganii I580) [mg/L] | MIC [7] [mg/L] | MIC [8] [mg/L] | MIC [9] [mg/L] | MIC (Escherichia coli 0111 [10]) [mg/L] | MIC [11] [mg/L] | MIC (Escherichia coli JT 39 [12]) [mg/L] | MIC (Proteus mirabilis C977 [13]) [mg/L] | MIC (Serratia marcescens US20) [mg/L] | MIC [14] [mg/L] | MIC (Shigella sonnei MB 11967) [mg/L] | further results |
| --- | --- | --- | --- | --- | --- | --- | --- | --- | --- | --- | --- | --- | --- | --- | --- | --- | --- | --- | --- | --- | --- |
| O=C(O)C1=C(CO)SC2CC(=O)N12 (centres unmarked) [compound 19, Sodium 2-Hydroxymethyl penem-3-carboxylate] | 62 | 31 | 8 | 62 | 62 | 31 | 10 | 50 | 50 | 25 | 10 | 1 | 1 | 10 | 25 | 10 | 25 | 10 | 2.5 | 10 | MIC (Streptococcus faecalis I): 100 mg/L; MIC (Bacillus subtilis A): 2.5 mg/L |
| CC(=O)OCC1=C(C(=O)O)N2C(=O)CC2S1 (centres unmarked) [compound 21, Sodium 2-Acetoxymethyl penem-3-carboxylate] | 500 | 8 | 8 | 31 | 8 | 8 | 10 | > 100 | 50 | 10 | 25 | 0.5 | 2.5 | 25 | 50 | 50 | 10 | 25 | 10 | 50 | MIC (Streptococcus faecalis I): 100 mg/L; MIC (Bacillus subtilis A): 2.5 mg/L |
